Laboratory results taken from ChEMBL document CHEMBL6182864, “Design, synthesis and biological evaluation of 3-amino-6-(2-hydroxyphenyl)pyridazin-4-aryl derivatives as SMARCA2/4 degraders” (Eur J Med Chem, 2025).
Calls of active or inactive are those of the source. The rule behind the calls is not given here.

Tests used:
[1] = Tmax in SPF Sprague-Dawley rat at 10 mg/kg, po by LC-MS/MS analysis; type: ADME, organism-based; details: in vivo
[2] = Half life in SPF Sprague-Dawley rat at 1 mg/kg, iv by LC-MS/MS analysis; type: ADME, organism-based; details: in vivo
MOLM-13 [3] = assay: Induction of apoptosis in human MOLM-13 cells assessed as necrotic cells at 100 nM measured after 72 hrs by Annexin-V-FITC/propidium iodide staining based flow cytometry (reference value: 0.28%); type: functional
MV4-11 [4] = assay: Induction of apoptosis in human MV4-11 cells assessed as viable cells at 300 nM measured after 72 hrs by Annexin-V-FITC/propidium iodide staining based flow cytometry (reference value: 89.49%); type: functional; details: read-out: Activity
MOLM-13 [5] = assay: Induction of apoptosis in human MOLM-13 cells assessed as necrotic cells at 300 nM measured after 72 hrs by Annexin-V-FITC/propidium iodide staining based flow cytometry (reference value: 0.28%); type: functional
[6] = Oral bioavailability in SPF Sprague-Dawley rat at 10 mg/kg by LC-MS/MS analysis; type: ADME, organism-based; details: in vivo
MOLM-13 [7] = assay: Induction of apoptosis in human MOLM-13 cells assessed as viable cells at 300 nM measured after 72 hrs by Annexin-V-FITC/propidium iodide staining based flow cytometry (reference value: 90.28%); type: functional; details: read-out: Activity
MV4-11 [8] = assay: Down regulation of CDC25A mRNA expression in human MV4-11 cells at 11.1 to 33.3 nM measured after 24 hrs by RT-qPCR analysis; type: functional, cell-based; details: dose 11.1-33.3 nM
MOLM-13 [9] = assay: Induction of apoptosis in human MOLM-13 cells assessed as upregulation of PARP expression measured after 72 hrs by Western blot analysis; type: functional, cell-based; details: dose 100-1000 nM
MOLM-13 [10] = assay: Induction of apoptosis in human MOLM-13 cells assessed as necrotic cells at 1000 nM measured after 72 hrs by Annexin-V-FITC/propidium iodide staining based flow cytometry (reference value: 0.28%); type: functional
MV4-11 [11] = assay: Induction of apoptosis in human MV4-11 cells assessed as early apoptotic cells at 100 nM measured after 72 hrs by Annexin-V-FITC/propidium iodide staining based flow cytometry (reference value: 9.32%); type: functional
MOLM-13 [12] = assay: Induction of apoptosis in human MOLM-13 cells assessed as viable cells at 100 nM measured after 72 hrs by Annexin-V-FITC/propidium iodide staining based flow cytometry (reference value: 90.28%); type: functional; details: read-out: Activity
MOLM-13 [13] = assay: Induction of apoptosis in human MOLM-13 cells assessed as early apoptotic cells at 300 nM measured after 72 hrs by Annexin-V-FITC/propidium iodide staining based flow cytometry (reference value: 5.57%); type: functional
MV4-11 [14] = assay: Down regulation of CDC25A mRNA expression in human MV4-11 cells at 100 to 1000 nM measured after 24 hrs by RT-qPCR analysis; type: functional, cell-based; details: dose 100-1000 nM
HCT-116 = assay: cells; details: Homo sapiens, HCT-116, 72 h
[15] = AUC (0 to t) in SPF Sprague-Dawley rat at 1 mg/kg, iv by LC-MS/MS analysis; type: ADME, organism-based; details: in vivo
[16] = Half life in SPF Sprague-Dawley rat at 10 mg/kg, po by LC-MS/MS analysis; type: ADME, organism-based; details: in vivo
MCF7 = assay: cells; details: Homo sapiens, MCF7, 72 h
MOLM-13 [17] = assay: Induction of apoptosis in human MOLM-13 cells assessed as late apoptotic cells at 1000 nM measured after 72 hrs by Annexin-V-FITC/propidium iodide staining based flow cytometry (reference value: 3.87%); type: functional
MV4-11 [18] = assay: Down regulation of CD44 mRNA expression in human MV4-11 cells at 11.1 to 1000 nM measured after 24 hrs by RT-qPCR analysis; type: functional, cell-based; details: dose 11.1-1000 nM
MV4-11 [19] = assay: Down regulation of TRAP1 mRNA expression in human MV4-11 cells at 100 to 1000 nM measured after 24 hrs by RT-qPCR analysis; type: functional, cell-based; details: dose 100-1000 nM
WSUDLCL2 = assay: cells; details: Homo sapiens, WSUDLCL2, 72 h
MOLM-13 [20] = assay: Induction of apoptosis in human MOLM-13 cells assessed as late apoptotic cells at 100 nM measured after 72 hrs by Annexin-V-FITC/propidium iodide staining based flow cytometry (reference value: 3.87%); type: functional
[21] = MRT (0 to t) in SPF Sprague-Dawley rat at 1 mg/kg, iv by LC-MS/MS analysis; type: ADME, organism-based; details: in vivo
MV4-11 [22] = assay: cells; details: Homo sapiens, MV4-11, 72 h
MV4-11 [23] = assay: Down regulation of MYC mRNA expression in human MV4-11 cells measured after 24 hrs by RT-qPCR analysis; type: functional, cell-based; details: dose 11.1-1000 nM
MV4-11 [24] = assay: Induction of apoptosis in human MV4-11 cells assessed as late apoptotic cells at 100 nM measured after 72 hrs by Annexin-V-FITC/propidium iodide staining based flow cytometry (reference value: 1.09%); type: functional
MOLM-13 [25] = assay: Antiproliferative activity against human MOLM-13 cells assessed as reduction in cell viability at 100 nM by MTT assay; type: functional, cell-based; details: time 3-7 day
MV4-11 [26] = assay: Induction of apoptosis in human MV4-11 cells assessed as late apoptotic cells at 1000 nM measured after 72 hrs by Annexin-V-FITC/propidium iodide staining based flow cytometry (reference value: 1.09%); type: functional
MOLM-13 [27] = assay: cells; details: Homo sapiens, MOLM-13, 72 h
[28] = Cmax in SPF Sprague-Dawley rat at 10 mg/kg, po by LC-MS/MS analysis; type: ADME, organism-based; details: in vivo
MOLM-13 [29] = assay: Induction of apoptosis in human MOLM-13 cells assessed as late apoptotic cells at 300 nM measured after 72 hrs by Annexin-V-FITC/propidium iodide staining based flow cytometry (reference value: 3.87%); type: functional
MV4-11 [30] = assay: Down regulation of TRAP1 mRNA expression in human MV4-11 cells at 11.1 to 33.3 nM measured after 24 hrs by RT-qPCR analysis; type: functional, cell-based; details: dose 11.1-33.3 nM
[31] = Down regulation of SMARCA2 level in human MV4-11 cells at 100 nM measured after 6 hrs by mass spectrometric proteomic analysis relative to control; type: functional
MV4-11 [32] = assay: Cell cycle arrest in human MV4-11 cells assessed as increase in accumulation of cells at G0/G1 phase measured after 48 hrs by propidium iodide staining based flow cytometry; type: functional; details: dose 100-1000 nM
SUD4 = assay: cells; details: Homo sapiens, SU-DHL-4, 72 h
MV4-11 [33] = assay: Effect on SMARCA2 mRNA expression in human MV4-11 cells at 1000 nM measured after 24 hrs by RT-qPCR analysis; type: functional, cell-based
MV4-11 [34] = assay: Induction of apoptosis in human MV4-11 cells assessed as necrotic cells at 1000 nM measured after 72 hrs by Annexin-V-FITC/propidium iodide staining based flow cytometry (reference value: 0.1%); type: functional
MV4-11 [35] = assay: Effect on SMARCA4 mRNA expression in human MV4-11 cells at 1000 nM measured after 24 hrs by RT-qPCR analysis; type: functional, cell-based

SMILES: Cc1ncsc1-c1ccc([C@H](C)NC(=O)[C@@H]2C[C@@H](O)CN2C(=O)[C@@H](NC(=O)C2(c3ccc(-c4cc(-c5ccccc5O)nnc4N)cc3)CC2)C(C)(C)C)cc1
- Tmax [1]: 0.42 h
- half-life [2]: 1.91 h
- Activity (MOLM-13 [3]): 0.19%
- viability at 0.3 µM (MV4-11 [4]): 24.4%
- Activity (MOLM-13 [5]): 0.31%
- F [6]: 0.62%
- viability at 0.3 µM (MOLM-13 [7]): 27.1%
- Activity (MV4-11 [8]): inactive
- Activity (MOLM-13 [9]): Dose-dependent-effect
- Activity (MOLM-13 [10]): 0.24%
- Activity (MV4-11 [11]): 47.5%
- viability at 0.1 µM (MOLM-13 [12]): 54.1%
- Activity (MOLM-13 [13]): 58.21%
- Activity (MV4-11 [14]): Active
- IC50 (HCT-116): > 30 µM
- AUCt [15]: 0.358 µg·h/mL
- half-life [16]: 2.1 h
- IC50 (MCF7): > 30 µM
- Activity (MOLM-13 [17]): 16.77%
- Activity (MV4-11 [18]): Active
- Activity (MV4-11 [19]): Active
- IC50 (WSUDLCL2): 0.337 µM
- Activity (MOLM-13 [20]): 6.91%
- MRT last [21]: 0.7 h
- IC50 (MV4-11 [22]): 0.005 µM
- Activity (MV4-11 [23]): Dose-dependent-effect
- Activity (MV4-11 [24]): 18.96%
- Activity (MOLM-13 [25]): Time-dependent-effect; Complete Reduction Was Achieved On Day 7
- Activity (MV4-11 [26]): 24.35%
- IC50 (MOLM-13 [27]): 0.023 µM
- Cmax [28]: 6.41 ng/mL
- Activity (MOLM-13 [29]): 14.39%
- Activity (MV4-11 [30]): inactive
- Activity [31]: >=50%
- Activity (MV4-11 [32]): Dose-dependent-effect
- IC50 (SUD4): 0.088 µM
- Activity (MV4-11 [33]): Active; Little Effect Mrna Level Observed
- Activity (MV4-11 [34]): 1.67%
- Activity (MV4-11 [35]): Active; Little Effect Mrna Level Observed
